Assay results taken from paper PMC6100582 (Molecules : A Journal of Synthetic Chemistry and Natural …, 2018).
Converted amounts (≈) assume the structure as drawn. Where two headings read alike, the source gives them in different places.

How the values were obtained:
[1] = test system: Candida albicans ATCC 90028; assay: In vitro antifungal susceptibility testing (MIC determination); assay type: cell-based; conditions: ATCC90028
Para-Influenza-3 Virus = assay: organism not typed; assay type: cell-based
Reovirus-1 = assay: Antiviral activity in Vero cell cultures; assay type: cell-based
Sindbis Virus = assay: microbe, parasite or virus in culture; assay type: cell-based; conditions: Vero
Coxsackie Virus B4 = assay: Antiviral activity in Vero cell cultures; assay type: cell-based; conditions: Enterovirus B
Punta Toro Virus = assay: microbe, parasite or virus in culture; assay type: cell-based
Yellow Fever Virus = assay: microbe, parasite or virus in culture; assay type: cell-based; conditions: Vero
Vero cell cultures = conditions: African green monkey
in vitro = conditions: African green monkey
[2] = test system: Acinetobacter baumannii MFBF 10913; assay: Minimum biofilm eradication assay; assay type: cell-based
Protocol: (§1) MBECs of fumardiamides 4a–f and succindiamides 5a–f were determined as follows. Each well (96-well plate) was filled with 100 µl of bacterial (10^7 CFU/mL) or yeast (5 × 10^6 CFU/mL) suspension. When the inhibition of yeast biofilm formation was tested, the wells were pre-treated with fetal bovine serum (FBS) (250 µl per well). Negative controls contained broth only. Positive controls were performed using standard antimicrobial drugs gentamycin (Gen) and Amph, respectively. […] Following incubation period, each well was aspirated, washed three times and vigorously shaken to remove all non-adherent bacteria/yeast. The remaining attached cells were fixed with methanol (15 min) and the plates were left to dry overnight. Formed biofilm was stained with crystal violet (1%, 5 min). Excess stain was rinsed by placing the plate under running tap water and the plates were left to dry. Adherent cells were solubilized using ethanol. The absorbance was read at 570 nm. The MBEC value represents the lowest dilution of a compound at which bacteria fail to grow.

[3] = test system: Bacillus cereus ATCC 11778; assay: Minimum biofilm eradication assay; assay type: cell-based
Protocol: as §1

[4] = test system: Bacillus subtilis ATCC 6633; assay: Minimum biofilm eradication assay; assay type: cell-based
Protocol: as §1

[5] = test system: Enterococcus faecalis ATCC 29212; assay: Minimum biofilm eradication assay; assay type: cell-based
Protocol: as §1

[6] = test system: Escherichia coli ATCC 10536; assay: Minimum biofilm eradication assay; assay type: cell-based
Protocol: as §1

[7] = test system: Proteus mirabilis MFBF 10430; assay: Minimum biofilm eradication assay; assay type: cell-based
Protocol: as §1

[8] = test system: Pseudomonas aeruginosa ATCC 27853; assay: Minimum biofilm eradication assay; assay type: cell-based
Protocol: as §1

[9] = test system: Salmonella enteritidis MFBF 11945; assay: Minimum biofilm eradication assay; assay type: cell-based
Protocol: as §1

[10] = test system: Serratia marcescens ATCC 10905; assay: Minimum biofilm eradication assay; assay type: cell-based
Protocol: as §1

[11] = test system: Staphylococcus aureus ATCC 6538; assay: Minimum biofilm eradication assay; assay type: cell-based
Protocol: as §1

[12] = test system: Streptococcus pneumonia MFBF 10373; assay: Minimum biofilm eradication assay; assay type: cell-based, Streptococcus pneumoniae
Protocol: as §1

[13] = test system: Capan-1 (pancreatic adenocarcinoma); assay: Antiproliferative screening (cytostatic activity); assay type: cell-based; conditions: Homo sapiens, CAPAN-1, 72 h, read-out: IC50 Capan-1
Protocol: (§2) All human tumor cell lines were acquired from the American Type Culture Collection (ATCC, Manassas, VA, USA), except for the DND-41 cell line which was purchased from the Deutsche Sammlung von Mikroorganismen und Zellkulturen (DSMZ Leibniz-Institut, Braunschweig, Germany) and the Hap1 cell line which was purchased from Horizon Discovery (Waterbeach, UK). […] All media were supplemented with 10% FBS (HyClone, GE Healthcare Life Sciences, USA). […] After overnight incubation, cells were treated with test compounds at four different concentrations ranging from 100 to 0.8 µM. […] Images were taken every 3 h, with one field image per well under 10× magnification. All compounds were tested with duplicate data points and averaged.

[14] = test system: HCT-116 (colorectal carcinoma); assay: Antiproliferative screening (cytostatic activity); assay type: cell-based; conditions: Homo sapiens, HCT-116, 72 h, read-out: IC50 HCT-116
Protocol: as §2

[15] = test system: K-562 (chronic myeloid leukemia); assay: Antiproliferative screening (cytostatic activity); assay type: cell-based; conditions: Homo sapiens, K562, 72 h, read-out: IC50 K-562
Protocol: as §2

MM.1S (multiple myeloma) = assay: Antiproliferative screening (cytostatic activity); assay type: cell-based; conditions: Homo sapiens, MM1.S, 72 h, read-out: IC50 MM.1S
Protocol: as §2

[16] = test system: NCI-H460 (lung carcinoma); assay: Antiproliferative screening (cytostatic activity); assay type: cell-based; conditions: Homo sapiens, NCI-H460, 72 h, read-out: IC50 NCI-H460
Protocol: as §2

[17] = test system: Z-138 (non-Hodgkin lymphoma); assay: Antiproliferative screening (cytostatic activity); assay type: cell-based; conditions: Homo sapiens, Z-138, 72 h, read-out: IC50 Z-138
Protocol: as §2

[18] = test system: HL-60 (acute myeloid leukemia); assay: Antiproliferative screening (cytostatic activity); assay type: cell-based; conditions: Homo sapiens, HL-60, 72 h, read-out: IC50 HL-60
Protocol: (§3) Cytostatic activity was evaluated in vitro on nine different types of human tumor cell lines: Capan-1, Hap1, HCT-116, and NCI-H460, as well as hematological tumors such as DND-41, HL-60, K-562, MM.1S and Z-138 as described previously. All human tumor cell lines were acquired from the American Type Culture Collection (ATCC, Manassas, VA, USA), except for the DND-41 cell line which was purchased from the Deutsche Sammlung von Mikroorganismen und Zellkulturen (DSMZ Leibniz-Institut, Braunschweig, Germany) and the Hap1 cell line which was purchased from Horizon Discovery (Waterbeach, UK). Capan-1, Hap1, HL-60, K-562, Z-138, MM.1S and DND-41 were cultured in Iscove′s Modified Dulbecco′s Medium (IMDM, Gibco Life Technologies, Gaithersburg, MD, USA), HCT-116 were grown in McCoy′s 5A Medium (Gibco Life Technologies) and NCI-H460 were cultured in RPMI (Gibco Life Technologies). All media were supplemented with 10% FBS (HyClone, GE Healthcare Life Sciences, USA). Adherent cell lines HCT-116, Hap1, NCI-H460, and Capan-1 cells were seeded at a density between 400 and 1250 cells per well, in 384-well, black-walled, clear-bottomed tissue culture plates (Greiner Bio-One, Kremsmünster, Germany). After overnight incubation, cells were treated with test compounds at four different concentrations ranging from 100 to 0.8 µM. Suspension cell lines HL-60, K-562, Z-138, MM.1S, and DND-41 were seeded at densities ranging from 3000 to 10,000 cells per well in 384-well, black-walled, clear-bottomed tissue culture plates containing test compounds at the same four concentrations. The plates were incubated and monitored at 37 °C for 72 h in an IncuCyte (Essen BioScience Inc., Ann Arbor, MI, USA) for real-time imaging. Images were taken every 3 h, with one field image per well under 10× magnification. All compounds were tested with duplicate data points and averaged. […]

[19] = test system: Hap1 (chronic myeloid leukemia); assay: Antiproliferative screening (cytostatic activity); assay type: cell-based; conditions: Homo sapiens, HAP1, 72 h, read-out: IC50 Hap1
Protocol: as §3

[20] = test system: DND-41 (acute lymphoblastic leukemia); assay: Antiproliferative screening (cytostatic activity); assay type: cell-based, human; conditions: Homo sapiens, DND41, 72 h, read-out: IC50 DND-41
Protocol: as §3

[21] = test system: Staphylococcus aureus ATCC 6538; assay: Antimicrobial susceptibility assay in vitro (MIC determination); assay type: cell-based; conditions: ATCC6538
[22] = test system: Acinetobacter baumannii MFBF 10913; assay: as above; assay type: cell-based; conditions: MFBF10913, serial microdilution, 18 h, 35 °C
Protocol: (§4) Stock solutions of the tested compounds were prepared in DMSO (10 mg/mL). […] The absorbance was recorded at 540 nm. As a positive quality control (susceptibility of strains) tetracycline hydrochloride (TC) (Sigma-Aldrich) was added into wells.

[23] = test system: Bacillus cereus ATCC 11778; assay: as above; assay type: cell-based; conditions: ATCC11778, serial microdilution, 18 h, 35 °C
Protocol: as §4

[24] = test system: Bacillus subtilis ATCC 6633; assay: as above; assay type: cell-based; conditions: ATCC6633, serial microdilution, 18 h, 35 °C
Protocol: as §4

[25] = test system: Streptococcus pneumoniae MFBF 10373; assay: as above; assay type: cell-based; conditions: MFBF10373, serial microdilution, 18 h, 35 °C
Protocol: as §4

[26] = Vero cells, MTS, read-out: EC50 Para-Influenza-3 Virus, MTS
[27] = Vero cells, MTS, read-out: EC50 Reovirus-1, MTS
[28] = Vero cells, visual CPE score, read-out: EC50 Reovirus-1, Visual CPE Score
[29] = read-out: EC50 Sindbis Virus, MTS
[30] = read-out: EC50 Sindbis Virus, Visual CPE Score
[31] = B4, Vero cells, MTS, read-out: EC50 Coxsackie Virus B4, MTS
[32] = B4, Vero cells, visual CPE score, read-out: EC50 Coxsackie Virus B4, Visual CPE Score
[33] = Vero cells, MTS, read-out: EC50 Punta Toro Virus, MTS
[34] = read-out: EC50 Yellow Fever Virus, MTS
[35] = read-out: EC50 Yellow Fever Virus, Visual CPE Score

Compound	EC50 (Para-Influenza-3 Virus; [26])	EC50 (Reovirus-1; [27])	EC50 (Reovirus-1; [28])	EC50 (Sindbis Virus; [29])	EC50 (Sindbis Virus; [30])	EC50 (Coxsackie Virus B4; [31])	EC50 (Coxsackie Virus B4; [32])	EC50 (Punta Toro Virus; [33])	EC50 (Yellow Fever Virus; [34])	EC50 (Yellow Fever Virus; [35])	CC50 (in vitro)	MBEC [2]	MBEC [3]	MBEC [4]	MBEC [5]	MBEC [6]	MBEC [7]	MBEC [8]	MBEC [9]	MBEC [10]	other results
C[C@@H]1[C@H](O)[C@@H](C)/C=C/C=C/C=C/C=C/C=C/C=C/C=C/[C@H](O[C@@H]2O[C@H](C)[C@@H](O)[C@H](N)[C@@H]2O)C[C@@H]2O[C@](O)(C[C@@H](O)C[C@@H](O)[C@H](O)CC[C@@H](O)C[C@@H](O)CC(=O)O[C@H]1C)C[C@H](O)[C@H]2C(=O)O [Amph, amphotericin B, reference compound]	–	–	–	–	–	–	–	–	–	–	–	–	–	–	–	–	–	–	–	–	MIC [1]: 0.5 µg/mL (≈ 0.541 µM)
COc1c(C)c2c(c(O)c1C/C=C(\C)CCC(=O)O)C(=O)OC2 [MPA, mycophenolic acid, reference compound]	1 µM	0.6 µM	0.8 µM	12 µM	1.7 µM	> 100 µM	> 100 µM	11 µM	0.5 µM	0.8 µM	> 100 µg/mL	–	–	–	–	–	–	–	–	–	EC50 (Punta Toro Virus; Vero cells, visual CPE score, read-out: EC50 Punta Toro Virus, Visual CPE Score): 8.9 µM; Cytotoxicity MCC (minimum cytotoxic concentration) (Vero cell cultures): >100
COc1cc(NC(C)CCCN)c2ncccc2c1 (stereo not drawn) [PQ, primaquine, reference compound]	> 50 µM	–	–	> 50 µM	–	–	–	> 50 µM	> 50 µM	–	–	50 µg/mL	70 µg/mL	80 µg/mL	>100 µg/mL	65 µg/mL	>100 µg/mL	65 µg/mL	70 µg/mL	>100 µg/mL	MBEC [11]: 50 µg/mL; MBEC [12]: 70 µg/mL; EC50 (Reovirus-1; Vero, read-out: EC50 Reovirus-1, MTS): > 50 µM; EC50 (Coxsackie Virus B4; B4, Vero, read-out: EC50 Coxsackie Virus B4, MTS): > 50 µM; IC50 [13]: 18.7 µM; IC50 [14]: 30.9 µM; IC50 [15]: 35.2 µM; IC50 (MM.1S (multiple myeloma)): 28.3 µM; IC50 [16]: 52.6 µM; IC50 [17]: 7.1 µM; IC50 [18]: 2.2 µM; IC50 [19]: 42.7 µM; IC50 [20]: 11.4 µM
NC(=O)c1ncn([C@@H]2O[C@H](CO)[C@@H](O)[C@H]2O)n1 [RIB, ribavirin, reference compound]	–	107 µM	126 µM	> 250 µM	11 µM	> 250 µM	> 250 µM	–	119 µM	> 250 µM	> 250 µg/mL	–	–	–	–	–	–	–	–	–	EC50 (Para-Influenza-3 Virus; Vero, read-out: EC50 Para-Influenza-3 Virus, MTS): 73 µM; EC50 (Para-Influenza-3 Virus; Vero, read-out: EC50 Para-Influenza-3 Virus, Visual CPE Score): 111 µM; EC50 (Punta Toro Virus; Vero, read-out: EC50 Punta Toro Virus, MTS): 85 µM; EC50 (Punta Toro Virus; Vero, read-out: EC50 Punta Toro Virus, Visual CPE Score): 111 µM
CN(C)[C@@H]1C(O)=C(C(N)=O)C(=O)[C@@]2(O)C(O)=C3C(=O)c4c(O)cccc4[C@@](C)(O)[C@H]3C[C@@H]12 [TC, tetracycline, reference compound]	–	–	–	–	–	–	–	–	–	–	–	–	–	–	–	–	–	–	–	–	MIC [21]: 0.3 µg/mL (≈ 0.675 µM); MIC [22]: 3 µg/mL (≈ 6.75 µM); MIC [23]: 0.3 µg/mL (≈ 0.675 µM); MIC [24]: 0.3 µg/mL (≈ 0.675 µM); MIC [25]: 0.3 µg/mL (≈ 0.675 µM)
gentamycin [reference compound]	–	–	–	–	–	–	–	–	–	–	–	25 µg/mL	50 µg/mL	50 µg/mL	50 µg/mL	25 µg/mL	50 µg/mL	50 µg/mL	50 µg/mL	50 µg/mL	MBEC [11]: 12.5 µg/mL; MBEC [12]: 25 µg/mL
